Assay results as given in US10328027B2, “Assisted particle size reduction process” (HOVIONE INTERNATIONAL LTD, priority 2014, dated 2019).

Assay: Particle size distribution (Dv10, Dv50, Dv90, span) of processed API particles
Assay type: physicochemical
Text: The most common approach for expressing particle size results is to report Dv10, Dv50, and Dv90 values based on a volume distribution. The span calculation [(Dv90−Dv10)/Dv50] is the most common format to express distribution width.
The terms Dv10, Dv50, and Dv90 as discussed herein are known to those skilled in the art. Dv50 refers to the maximum particle diameter below which 50% of the sample volume exists. Dv90 refers to the maximum particle diameter below which 90% of the sample volume exists. Dv10 refers to the maximum particle diameter below which 10% of the sample volume exists. The term particle size distribution span refers to the result of the calculation [(Dv90−Dv10)/Dv50].

[1] = Example 1, after aging for 20 hours without stirring at room temperature
[2] = Example 1, product isolated by spray drying (100° C.) after distillation to approx. 100% heptane
[3] = Example 1, suspension in n-heptane/ethyl acetate, after particle size reduction (microfluidizer 400 bar, 50 cycles)
[4] = Comparison, process of WO2011131947 (water), product isolated by spray drying (45° C.)
[5] = Comparison, process of WO2011131947, suspension in anti-solvent water, after size reduction (750 bar, 45 cycles)
[6] = Example 2, invention, product isolated by spray drying (45° C.)
[7] = Example 2, invention, suspension in water/acetone, after particle size reduction (microfluidizer 750 bar, 45 cycles)
[8] = Example 2, invention, water/acetone, after aging for 22 hours

## C[N+]1(C)[C@@H]2C[C@@H](OC(=O)C(O)(c3cccs3)c3cccs3)C[C@H]1[C@@H]1O[C@@H]12 [Tiotropium Bromide]
[1]
  Dv10: 0.78 μm
  Dv50: 3.33 μm
  Dv90: 7.45 μm
  span [(Dv90-Dv10)/Dv50]: 2.0
[2]
  Dv10: 0.83 μm
  Dv50: 3.02 μm
  Dv90: 7.05 μm
  span [(Dv90-Dv10)/Dv50]: 2.1
[3]
  Dv10: 0.67 μm
  Dv50: 2.98 μm
  Dv90: 7.09 μm
  span [(Dv90-Dv10)/Dv50]: 2.2

## CCC(=O)O[C@]1(C(=O)SCF)[C@H](C)C[C@H]2[C@@H]3C[C@H](F)C4=CC(=O)C=C[C@]4(C)[C@@]3(F)[C@@H](O)C[C@@]21C [Fluticasone propionate]
[4]
  Dv10: 0.99 μm
  Dv50: 1.94 μm
  Dv90: 3.60 μm
  span [(Dv90-Dv10)/Dv50]: 1.4
[5]
  Dv10: 1.28 μm
  Dv50: 2.44 μm
  Dv90: 4.45 μm
  span [(Dv90-Dv10)/Dv50]: 1.3
[6]
  Dv10: 1.38 μm
  Dv50: 2.42 μm
  Dv90: 4.18 μm
  span [(Dv90-Dv10)/Dv50]: 1.2
[7]
  Dv10: 0.92 μm
  Dv50: 1.81 μm
  Dv90: 3.39 μm
  span [(Dv90-Dv10)/Dv50]: 1.4
[8]
  Dv10: 1.42 μm
  Dv50: 2.53 μm
  Dv90: 4.43 μm
  span [(Dv90-Dv10)/Dv50]: 1.2
